Results reported in US20230146675A1, “PYRIMIDO[5,4-d]PYRIMIDINE DERIVATIVES AS ENT INHIBITORS FOR THE TREATMENT OF CANCERS, AND COMBINATION THEREOF WITH ADENOSINE RECEPTOR ANTAGONISTS” (ITEOS BELGIUM SA, priority 2020, published 2023).
Where two headings read alike, the source gives them in different places.

Assays:
[1] = system: stimulated primary human T cells; test: T cell proliferation assay (rescue of proliferation in presence of 100 uM ATP); assay type: cell-based
Procedure: Purpose. The aim of this study was to determine the potency of equilibrative nucleoside transporter 1 (ENT1) inhibitors to rescue proliferation by stimulated primary human T cells incubated in the presence of 100 uM Adenosine triphosphate (ATP) with: • Condition A: X-VIVO15 • Condition B: X-VIVO15, 2% Human Serum Albumine (HSA) and 0.1% α-1-Acid Glycoprotein (AAG)
Method. Cryopreserved purified human CD3+ T cells were thawed and washed twice with RPMI1640 medium, UltraGlutamine containing 10% hiFBS.
Cells were suspended in PBS containing 10% hiFBS. Cells were stained with CFSE by adding 2 μM solution in PBS, to get a final 1 μM CFSE solution. Cells were incubated while rotating for 5 minutes. Reaction was stopped by adding PBS with 10% FBS and cells were centrifuged for 5 minutes at 1500 rpm.
Cells were resuspended at 1.6×10^6 cells/mL, either in X-VIVO15 medium or in 4% Human Serum Albumin and 0.2% α-1-Acid Glycoprotein. 50 μL of cell suspension (8×10^4 T cells) was added to wells of sterile round-bottom 96-well plates. Cells were activated by adding 50 μL of anti-CD3 anti-CD28 coated microbeads, suspended either in XVIVO-15 medium or in 4% HSA and 0.2% α-1-Acid Glycoprotein, at a ratio of one microbead per two cells.
Serial dilutions of the ENT1 inhibitors were prepared in X-VIVO15 from 10 mM stock solutions in DMSO, and 50 μL was added to the wells.
ATP powder was diluted in X-VIVO15, and 50 μL of this compound was added to the wells to reach a final assay concentration of 100 μM. Final volume of 200 μL.
The experiments were also performed in 384 well plates—all volumes reduced by a factor of 4 ([…]) with a final volume of 50 μL.
Experiments were performed in duplicate. The cells were placed in a 37° C. humidified tissue culture incubator with 5% CO2 for 72 hours for 96 well plates, 96 hours for 384 well plates. After 72 or 96 hours, proliferation was measured determined by CFSE dilution via flow cytometry.
Results. Compounds of the invention have good ENT1 inhibitory properties.

[2] = target: T1, Human phosphodiesterase-4A1A (Homo sapiens, UniProt P27815); test: PDE4A1A (h) assay; assay type: biochemical
T1 construct: host or cells: Sf9 cells
T1 sequence (P27815 1-647 isoform P27815-4): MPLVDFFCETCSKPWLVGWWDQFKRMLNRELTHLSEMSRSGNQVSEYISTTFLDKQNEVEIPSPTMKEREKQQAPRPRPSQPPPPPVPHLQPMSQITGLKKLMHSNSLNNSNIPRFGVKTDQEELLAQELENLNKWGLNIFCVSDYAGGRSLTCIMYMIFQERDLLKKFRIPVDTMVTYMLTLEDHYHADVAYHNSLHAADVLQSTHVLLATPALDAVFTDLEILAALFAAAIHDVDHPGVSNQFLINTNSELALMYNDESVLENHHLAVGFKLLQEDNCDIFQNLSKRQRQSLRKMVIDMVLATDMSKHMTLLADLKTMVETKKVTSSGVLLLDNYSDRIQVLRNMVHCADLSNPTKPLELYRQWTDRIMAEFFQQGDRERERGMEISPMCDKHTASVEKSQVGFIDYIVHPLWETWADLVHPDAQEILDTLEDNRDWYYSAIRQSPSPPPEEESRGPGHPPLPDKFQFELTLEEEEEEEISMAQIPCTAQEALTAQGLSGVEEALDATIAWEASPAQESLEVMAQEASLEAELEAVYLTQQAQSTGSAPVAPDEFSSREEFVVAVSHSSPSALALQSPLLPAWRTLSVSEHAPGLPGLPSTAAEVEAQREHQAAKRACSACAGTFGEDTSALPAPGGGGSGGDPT
Procedure: (§1) The test compound (compound 72), reference compound or water (control) were added to a buffer containing 40 mM Tris/HCl (pH 7.4) and 8 mM MgCl2, 450 nM cAMP and 0.25 μCi [3H]cAMP. Thereafter, the reaction was initiated by addition of the enzyme (about 3 U) and the mixture was incubated for 20 min at 22° C. For basal control measurements, the enzyme was omitted from the reaction mixture. Following incubation SPA beads were added. After 30 min at 22° C. under shaking, the amount of [3H]5′AMP was quantified with a scintillation counter (MicroBeta, Perkin Elmer). The results were expressed as a percent inhibition of the control enzyme activity.
The test compound (compound 72), reference compound or water (control) were added to a buffer containing 40 mM Tris/HCl (pH 7.4) and 8 mM MgCl2, 450 nM cAMP and 0.25 μCi [3H]cAMP. […] After 30 min at 22° C. under shaking, the amount of [3H]5′AMP was quantified with a scintillation counter (MicroBeta, Perkin Elmer). The results were expressed as a percent inhibition of the control enzyme activity. The standard inhibitory reference compound was Ro 20-1724, which was tested in each experiment at several concentrations to obtain an inhibition curve from which its IC50 value was calculated. • Human phosphodiesterase-4B1 quantified by measuring the formation of 5′AMP from cAMP using a human recombinant enzyme expressed in Sf9 cells.

[3] = target: T2, Human phosphodiesterase-2A1 (Homo sapiens, UniProt O00408); test: PDE2A1 (h) assay; assay type: biochemical
T2 construct: host or cells: Sf9 cells
T2 sequence (O00408 1-920 isoform O00408-2): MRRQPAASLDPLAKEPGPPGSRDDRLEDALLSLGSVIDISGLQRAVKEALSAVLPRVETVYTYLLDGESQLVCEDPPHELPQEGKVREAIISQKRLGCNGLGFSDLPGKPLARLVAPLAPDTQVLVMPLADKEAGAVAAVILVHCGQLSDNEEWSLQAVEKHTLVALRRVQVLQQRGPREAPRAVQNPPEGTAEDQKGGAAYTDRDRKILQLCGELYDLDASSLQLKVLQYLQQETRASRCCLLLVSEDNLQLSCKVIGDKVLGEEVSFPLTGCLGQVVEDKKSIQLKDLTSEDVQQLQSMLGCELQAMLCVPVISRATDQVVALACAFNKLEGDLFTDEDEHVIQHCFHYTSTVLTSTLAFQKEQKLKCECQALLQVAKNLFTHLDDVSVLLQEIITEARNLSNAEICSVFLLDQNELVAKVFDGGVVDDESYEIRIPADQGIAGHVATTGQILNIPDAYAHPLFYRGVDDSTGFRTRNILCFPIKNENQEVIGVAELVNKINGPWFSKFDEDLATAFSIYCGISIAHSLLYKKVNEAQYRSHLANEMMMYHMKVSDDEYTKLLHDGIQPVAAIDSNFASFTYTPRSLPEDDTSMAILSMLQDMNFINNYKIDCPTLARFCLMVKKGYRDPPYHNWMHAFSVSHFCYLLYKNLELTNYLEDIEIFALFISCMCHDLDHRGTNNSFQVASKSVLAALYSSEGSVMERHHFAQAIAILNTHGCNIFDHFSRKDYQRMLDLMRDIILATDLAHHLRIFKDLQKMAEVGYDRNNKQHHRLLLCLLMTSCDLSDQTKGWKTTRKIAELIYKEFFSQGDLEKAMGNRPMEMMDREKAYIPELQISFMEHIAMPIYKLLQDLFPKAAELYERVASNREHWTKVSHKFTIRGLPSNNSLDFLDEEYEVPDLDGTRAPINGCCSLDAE
Procedure: The test compound (compound 72), reference compound or water (control) were added to a buffer containing 40 mM Tris/HCl (pH 7.8), 3 mM MgCl2, 1.4 mM DTT, 0.21% BSA, 200 mM NH4Cl, 1 μM cGMP and 0.1 μCi [3H]cGMP. Thereafter, the reaction was initiated by addition of the enzyme (final amount depending on the efficiency of the isolation) and the mixture was incubated for 60 min at 22° C. For basal control measurements, the enzyme was omitted from the reaction mixture. Following incubation SPA beads were added. After 20 min at 22° C. under shaking, the amount of [3H]5′GMP was quantified with a scintillation counter (MicroBeta, Perkin Elmer). The results were expressed as a percent inhibition of the control enzyme activity.
as §1, with “7.4),” for “7.4) and”, “MgCl2 and 1.7 mM EGTA/NaOH, 1.8 μM” for “MgCl2, 450 nM”, “1” for “0.25”, “2 ng)” for “3 U)”, “15” for “20”, “activity. […]” for “activity.”

Work on `COCCN(CCOC)c1nc(N2CCN(C)C(=O)C2)c2nc(N(CCOC)CCOC)nc(N3CCC(OC)CC3)c2n1` [Compound 72, 4-(2,6-bis(bis(2-methoxyethyl)amino)-8-(4-methoxypiperidin-1-yl)pyrimido[5,4-d]pyrimidin-4-yl)-1-methylpiperazin-2-one] yielded an IC50 ([1]; Condition A: X-VIVO15, read-out: TCell proliferation (Condition A) IC50) of 100 to 500 nM, an IC50 ([1]; Condition B: X-VIVO15, 2% HSA and 0.1% AAG, read-out: TCell proliferation (Condition B) IC50) of 100 to 500 nM and an IC50 [2] of over 10000 nM. For the same molecule, the IC50 [3] was over 10000 nM.
